Where “and” joins values, the source holds several entries; their conditions need not be identical. Identical values can stand only once.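 Following 48 hours of exposure in 96-well plates, responses at five concentrations were used to interpolate endpoints linearly. GI50 marks 50% less growth.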 Calls of active or inactive are those of the source. No stated cut-off is given here; in the data, active = GI50 up to about 1.1 µM and inactive = higher.
Key:
Test in all cases: NCI tumour cell line growth inhibition, 48 h
786-0 = test system: 786-0
A498 = test system: A498
A549 = test system: A549
ACHN = test system: ACHN
CAKI-1 = test system: CAKI-1
HCT-15 = test system: HCT-15
HL-60 = test system: HL-60
HOP-92 = test system: HOP-92
Hs-578T = test system: Hs-578T
MDA-MB-435 = test system: MDA-MB-435
MDA-N = test system: MDA-N
MOLT-4 = test system: MOLT-4
Malme-3M = test system: Malme-3M
NCI-H226 = test system: NCI-H226
NCI-H23 = test system: NCI-H23
NCI-H522 = test system: NCI-H522
NCI/ADR-RES = test system: NCI/ADR-RES
OVCAR-3 = test system: OVCAR-3
OVCAR-4 = test system: OVCAR-4
OVCAR-5 = test system: OVCAR-5
PC-3 = test system: PC-3
SF-268 = test system: SF-268
SF-295 = test system: SF-295
SF-539 = test system: SF-539
SK-MEL-28 = test system: SK-MEL-28
SK-MEL-2 = test system: SK-MEL-2
SK-MEL-5 = test system: SK-MEL-5
SK-OV-3 = test system: SK-OV-3
SNB-19 = test system: SNB-19
SW-620 = test system: SW-620
T47D = test system: T47D
TK-10 = test system: TK-10
UACC-257 = test system: UACC-257
CCRF-CEM = test system: CCRF-CEM
DU-145 = test system: DU-145
EKVX = test system: EKVX
HCC 2998 = test system: HCC 2998
HCT-116 = test system: HCT-116
HOP-62 = test system: HOP-62
HT-29 = test system: HT-29
IGROV-1 = test system: IGROV-1
K562 = test system: K562
KM12 = test system: KM12
LOX IMVI = test system: LOX IMVI
M14 = test system: M14
MCF7 = test system: MCF7
MDA-MB-231 = test system: MDA-MB-231
NCI-H460 = test system: NCI-H460
OVCAR-8 = test system: OVCAR-8
RPMI-8226 = test system: RPMI-8226
RXF 393 = test system: RXF 393
U-251 = test system: U-251
UO-31 = test system: UO-31
COLO 205 = test system: COLO 205
SN12C = test system: SN12C
SNB-75 = test system: SNB-75
SR = test system: SR
UACC-62 = test system: UACC-62

SMILES: CN(C)c1ccc(/C=C/c2sc3ccccc3[n+]2C)cc1
- GI50 (786-0): 1.82 µM (inactive) and 1.61 µM (inactive)
- GI50 (A498): 14.9 µM (inactive) and 12.6 µM (inactive)
- GI50 (A549): 2.2 µM (inactive) and 3.82 µM (inactive)
- GI50 (ACHN): 1.46 µM (inactive) and 2.2 µM (inactive)
- GI50 (CAKI-1): 2.52 µM (inactive) and 3.33 µM (inactive)
- GI50 (HCT-15): 4.75 µM and 9.27 µM
- GI50 (HL-60): 180 nM (active) and 348 nM (active)
- GI50 (HOP-92): 3.65 µM (inactive) and 1.85 µM (inactive)
- GI50 (Hs-578T): 4 µM (inactive) and 7.62 µM (inactive)
- GI50 (MDA-MB-435): 813 nM (active) and 879 nM (active)
- GI50 (MDA-N): 1.16 µM (inactive)
- GI50 (MOLT-4): 270 nM (active) and 238 nM (active)
- GI50 (Malme-3M): 1.54 µM (inactive) and 1.96 µM (inactive)
- GI50 (NCI-H226): 3.71 µM (inactive) and 2.62 µM (inactive)
- GI50 (NCI-H23): 1.07 µM (active) and 743 nM (active)
- GI50 (NCI-H522): 1.93 µM (inactive) and 1.58 µM (inactive)
- GI50 (NCI/ADR-RES): 36.9 µM (inactive) and > 57 µM (inactive)
- GI50 (OVCAR-3): 550 nM (active) and 501 nM (active)
- GI50 (OVCAR-4): 2.62 µM (inactive) and 2.71 µM (inactive)
- GI50 (OVCAR-5): 12.7 µM (inactive) and 10.3 µM (inactive)
- GI50 (PC-3): 1.09 µM (active) and 838 nM (active)
- GI50 (SF-268): 3.29 µM (inactive) and 3.4 µM (inactive)
- GI50 (SF-295): 3.29 µM (inactive) and 6.35 µM (inactive)
- GI50 (SF-539): 3.18 µM (inactive) and 4.18 µM (inactive)
- GI50 (SK-MEL-28): 1.85 µM (inactive) and 3.44 µM (inactive)
- GI50 (SK-MEL-2): 2.82 µM (inactive) and 2.29 µM (inactive)
- GI50 (SK-MEL-5): 1.09 µM (active) and 1.7 µM (inactive)
- GI50 (SK-OV-3): 4.56 µM (inactive)
- GI50 (SNB-19): 2.09 µM (inactive) and 1.99 µM (inactive)
- GI50 (SW-620): 433 nM (active) and 427 nM (active)
- GI50 (T47D): 2.47 µM (inactive) and 4.05 µM (inactive)
- GI50 (TK-10): 5.65 µM (inactive) and 3.37 µM (inactive)
- GI50 (UACC-257): 1.82 µM (inactive) and 1.6 µM (inactive)

SMILES: CC[N+](CC)(CC)/C(=N\S(=O)(=O)c1ccc(Cl)cc1)[N-]S(=O)(=O)c1cc(C)c(Cl)cc1S
- GI50 (786-0): > 100 µM (inactive)
- GI50 (A498): 41.9 µM (inactive)
- GI50 (ACHN): > 100 µM (inactive)
- GI50 (CAKI-1): > 100 µM (inactive)
- GI50 (CCRF-CEM): 59.3 µM (inactive)
- GI50 (DU-145): 97.3 µM (inactive)
- GI50 (EKVX): > 100 µM (inactive)
- GI50 (HCC 2998): 73.5 µM (inactive)
- GI50 (HCT-116): 26.5 µM (inactive)
- GI50 (HCT-15): 66.7 µM
- GI50 (HL-60): 53.8 µM (inactive)
- GI50 (HOP-62): 52 µM (inactive)
- GI50 (HOP-92): 24.9 µM (inactive)
- GI50 (HT-29): 41.7 µM (inactive)
- GI50 (Hs-578T): > 100 µM (inactive)
- GI50 (IGROV-1): > 100 µM (inactive)
- GI50 (K562): 6.65 µM (inactive)
- GI50 (KM12): > 100 µM (inactive)
- GI50 (LOX IMVI): > 100 µM (inactive)
- GI50 (M14): 39.3 µM (inactive)
- GI50 (MCF7): 53.2 µM (inactive)
- GI50 (MDA-MB-231): > 100 µM (inactive)
- GI50 (MDA-MB-435): > 100 µM (inactive)
- GI50 (MDA-N): > 100 µM (inactive)
- GI50 (MOLT-4): 2.51 µM (inactive)
- GI50 (NCI-H226): 32.1 µM (inactive)
- GI50 (NCI-H23): 85.9 µM (inactive)
- GI50 (NCI-H460): 41 µM (inactive)
- GI50 (NCI-H522): 60.5 µM (inactive)
- GI50 (NCI/ADR-RES): > 100 µM (inactive)
- GI50 (OVCAR-3): 83 µM (inactive)
- GI50 (OVCAR-4): 65.5 µM (inactive)
- GI50 (OVCAR-5): 58.2 µM (inactive)
- GI50 (OVCAR-8): > 100 µM (inactive)
- GI50 (PC-3): 55.8 µM (inactive)
- GI50 (RPMI-8226): 47.3 µM (inactive)
- GI50 (RXF 393): 78.2 µM (inactive)
- GI50 (SF-268): > 100 µM (inactive)
- GI50 (SF-295): 47 µM (inactive)
- GI50 (SF-539): 57.3 µM (inactive)
- GI50 (SK-MEL-28): > 100 µM (inactive)
- GI50 (SK-MEL-2): > 100 µM (inactive)
- GI50 (SK-MEL-5): > 100 µM (inactive)
- GI50 (SK-OV-3): 62.8 µM (inactive)
- GI50 (SW-620): 70.3 µM (inactive)
- GI50 (T47D): > 100 µM (inactive)
- GI50 (TK-10): 58.7 µM (inactive)
- GI50 (U-251): 43.1 µM (inactive)
- GI50 (UACC-257): > 100 µM (inactive)
- GI50 (UO-31): > 100 µM (inactive)

SMILES: COC(=O)[C@@H](NC1(c2ccccc2)c2ccccc2-c2ccccc21)[C@H](OC(=O)[C@H]1CCCN1S(=O)(=O)c1ccccc1)C(=O)OC
- GI50 (786-0): > 100 µM (inactive)
- GI50 (A498): > 100 µM (inactive)
- GI50 (A549): > 100 µM (inactive)
- GI50 (ACHN): > 100 µM (inactive)
- GI50 (CCRF-CEM): > 100 µM (inactive)
- GI50 (COLO 205): > 100 µM (inactive)
- GI50 (DU-145): > 100 µM (inactive)
- GI50 (EKVX): 99.5 µM (inactive)
- GI50 (HCC 2998): > 100 µM (inactive)
- GI50 (HCT-116): > 100 µM (inactive)
- GI50 (HCT-15): > 100 µM
- GI50 (HL-60): > 100 µM (inactive)
- GI50 (HOP-62): > 100 µM (inactive)
- GI50 (HOP-92): < 0.01 µM (active)
- GI50 (HT-29): > 100 µM (inactive)
- GI50 (IGROV-1): > 100 µM (inactive)
- GI50 (K562): > 100 µM (inactive)
- GI50 (KM12): > 100 µM (inactive)
- GI50 (LOX IMVI): > 100 µM (inactive)
- GI50 (M14): > 100 µM (inactive)
- GI50 (MCF7): > 100 µM (inactive)
- GI50 (MDA-MB-231): > 100 µM (inactive)
- GI50 (MDA-MB-435): > 100 µM (inactive)
- GI50 (MDA-N): 72.9 µM (inactive)
- GI50 (MOLT-4): > 100 µM (inactive)
- GI50 (Malme-3M): > 100 µM (inactive)
- GI50 (NCI-H226): > 100 µM (inactive)
- GI50 (NCI-H23): > 100 µM (inactive)
- GI50 (NCI-H460): > 100 µM (inactive)
- GI50 (NCI-H522): 82.2 µM (inactive)
- GI50 (NCI/ADR-RES): > 100 µM (inactive)
- GI50 (OVCAR-3): > 100 µM (inactive)
- GI50 (OVCAR-4): > 100 µM (inactive)
- GI50 (OVCAR-5): > 100 µM (inactive)
- GI50 (OVCAR-8): > 100 µM (inactive)
- GI50 (PC-3): > 100 µM (inactive)
- GI50 (RXF 393): > 100 µM (inactive)
- GI50 (SF-268): > 100 µM (inactive)
- GI50 (SF-295): > 100 µM (inactive)
- GI50 (SF-539): > 100 µM (inactive)
- GI50 (SK-MEL-28): > 100 µM (inactive)
- GI50 (SK-MEL-2): 39.8 µM (inactive)
- GI50 (SK-MEL-5): > 100 µM (inactive)
- GI50 (SK-OV-3): 70.6 µM (inactive)
- GI50 (SN12C): > 100 µM (inactive)
- GI50 (SNB-19): > 100 µM (inactive)
- GI50 (SNB-75): 63.2 µM (inactive)
- GI50 (SR): > 100 µM (inactive)
- GI50 (SW-620): > 100 µM (inactive)
- GI50 (T47D): > 100 µM (inactive)
- GI50 (TK-10): > 100 µM (inactive)
- GI50 (U-251): > 100 µM (inactive)
- GI50 (UACC-257): > 100 µM (inactive)
- GI50 (UACC-62): > 100 µM (inactive)
- GI50 (UO-31): > 100 µM (inactive)
